Experimental data taken from ChEMBL document CHEMBL4052690, “2-Chlorophenyl-substituted benzofuro[3,2-b]pyridines with enhanced topoisomerase inhibitory activity: The role of the chlorine substituent” (Bioorg Med Chem Lett, 2017).
Structures can show the parent of a compound that is named as a salt.

Legend:
[1] = molecular target: T1, DNA topoisomerase 1 (Homo sapiens) (UniProt P11387); assay: Inhibition of human recombinant DNA topoisomerase 1 assessed as reduction in enzyme-mediated relaxation of supercoiled pBR322 plasmid DNA at 100 uM in presence of 0.1% BSA by ethidium bromide staining based gel electrophoresis and UV spectroscopy relative to camptothecin
T1 sequence (whole entry): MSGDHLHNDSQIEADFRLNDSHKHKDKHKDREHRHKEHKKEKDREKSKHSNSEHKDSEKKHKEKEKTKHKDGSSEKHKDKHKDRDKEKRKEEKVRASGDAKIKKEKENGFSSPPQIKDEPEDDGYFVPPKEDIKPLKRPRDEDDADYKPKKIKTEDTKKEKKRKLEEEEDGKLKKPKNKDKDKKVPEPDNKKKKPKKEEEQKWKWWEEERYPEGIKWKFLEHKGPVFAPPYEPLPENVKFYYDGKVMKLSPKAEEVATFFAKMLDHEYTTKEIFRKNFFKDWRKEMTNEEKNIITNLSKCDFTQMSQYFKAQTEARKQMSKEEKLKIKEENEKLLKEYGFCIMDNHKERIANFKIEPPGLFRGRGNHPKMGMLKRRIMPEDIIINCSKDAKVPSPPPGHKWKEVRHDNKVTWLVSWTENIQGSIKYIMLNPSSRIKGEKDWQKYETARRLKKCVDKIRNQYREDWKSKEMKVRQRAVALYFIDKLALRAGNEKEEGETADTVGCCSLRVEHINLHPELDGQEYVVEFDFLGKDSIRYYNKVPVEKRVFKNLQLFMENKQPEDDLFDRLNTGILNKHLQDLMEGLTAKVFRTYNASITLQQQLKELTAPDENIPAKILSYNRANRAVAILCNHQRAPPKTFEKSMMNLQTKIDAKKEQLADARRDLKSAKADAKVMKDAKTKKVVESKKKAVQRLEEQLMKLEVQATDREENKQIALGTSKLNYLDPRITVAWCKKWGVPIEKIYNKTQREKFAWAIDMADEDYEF

[2] = molecular target: T1, DNA topoisomerase 1 (Homo sapiens); assay: Inhibition of human recombinant DNA topoisomerase 1 assessed as reduction in enzyme-mediated relaxation of supercoiled pBR322 plasmid DNA at 100 uM in presence of 0.1% BSA by ethidium bromide staining based gel electrophoresis and UV spectroscopy
HCT-15 = assay: Antiproliferative activity against human HCT15 cells after 72 hrs by CCK8 assay; type: functional, cell-based; settings: HCT-15, 72 h
HeLa = assay: Antiproliferative activity against human HeLa cells after 72 hrs by CCK8 assay; type: functional, cell-based
Homo sapiens [3] = species on record: Homo sapiens; assay: Inhibition of human recombinant DNA topoisomerase 2 assessed as reduction in enzyme-mediated relaxation of supercoiled pBR322 plasmid DNA at 20 uM in presence of 0.1% BSA by ethidium bromide staining based gel electrophoresis and UV spectroscopy
Homo sapiens [4] = species on record: Homo sapiens; assay: Inhibition of human recombinant DNA topoisomerase 2 assessed as reduction in enzyme-mediated relaxation of supercoiled pBR322 plasmid DNA at 100 uM in presence of 0.1% BSA by ethidium bromide staining based gel electrophoresis and UV spectroscopy
Homo sapiens [5] = species on record: Homo sapiens; assay: Inhibition of human recombinant DNA topoisomerase 2 assessed as reduction in enzyme-mediated relaxation of supercoiled pBR322 plasmid DNA at 20 uM in presence of 0.1% BSA by ethidium bromide staining based gel electrophoresis and UV spectroscopy relative to etoposide
T47D = assay: Antiproliferative activity against human T47D cells after 72 hrs by CCK8 assay; type: functional, cell-based
Homo sapiens [6] = species on record: Homo sapiens; assay: Inhibition of human recombinant DNA topoisomerase 2 assessed as reduction in enzyme-mediated relaxation of supercoiled pBR322 plasmid DNA at 100 uM in presence of 0.1% BSA by ethidium bromide staining based gel electrophoresis and UV spectroscopy relative to etoposide

Structure (SMILES)	fold change (FC) [1]	inhibition [2] [%]	IC50 (HCT-15) [µM]	IC50 (HeLa) [µM]	inhibition (Homo sapiens [3]) [%]	inhibition (Homo sapiens [4]) [%]	fold change (FC) (Homo sapiens [5])	IC50 (T47D) [µM]	fold change (FC) (Homo sapiens [6])
Clc1ccc(-c2cc(-c3ccsc3)c3oc4ccccc4c3n2)cc1	0.92	79.9	> 50	> 50	10.1	95.7	0.32	> 50	1.83
Clc1cccc(-c2cc(-c3ccoc3)c3oc4ccccc4c3n2)c1	0.97	84.3	17.6	41.1	50.4	86.1	1.6	18.1	1.65
COc1cccc2c1C(=O)c1c(O)c3c(c(O)c1C2=O)C[C@@](O)(C(=O)CO)C[C@@H]3O[C@H]1C[C@H](N)[C@H](O)[C@H](C)O1 [DOXORUBICIN HYDROCHLORIDE]	–	–	0.94	2.77	–	–	–	1.29	–
COc1cc([C@@H]2c3cc4c(cc3[C@@H](O[C@@H]3O[C@@H]5CO[C@@H](C)O[C@H]5[C@H](O)[C@H]3O)[C@H]3COC(=O)[C@H]23)OCO4)cc(OC)c1O [ETOPOSIDE]	–	–	9.27	4.12	31.5 to 36.8	52.3 to 66	–	–	–
Clc1ccc(-c2cc(-c3cccs3)c3oc4ccccc4c3n2)cc1	1.15	100	> 50	> 50	15.1	58.5	0.41	> 50	0.89
Clc1cccc(-c2cc(-c3cccs3)c3oc4ccccc4c3n2)c1	0.98	85.1	19.3	> 50	17.3	85.3	0.47	17.2	1.29
Clc1ccc(-c2cc(-c3ccoc3)c3oc4ccccc4c3n2)cc1	0.95	86.5	38.6	16.6	82.1	88.7	2.61	18.5	1.7
CC[C@@]1(O)C(=O)OCc2c1cc1n(c2=O)Cc2cc3ccccc3nc2-1 [CAMPTOTHECIN]	–	–	–	2.62	–	–	–	2.31	–
Clc1cccc(-c2cc(-c3ccccc3)c3oc4ccccc4c3n2)c1	0.93	80.6	> 50	37.2	14.8	83	0.4	33.6	1.26
Clc1cccc(-c2cc(-c3ccsc3)c3oc4ccccc4c3n2)c1	0.81	70.2	13.5	> 50	12.2	93.8	0.39	13.2	1.79

Continued, values first:

fold change (FC) [1]	inhibition [2] [%]	IC50 (HCT-15) [µM]	IC50 (HeLa) [µM]	inhibition (Homo sapiens [3]) [%]	inhibition (Homo sapiens [4]) [%]	fold change (FC) (Homo sapiens [5])	IC50 (T47D) [µM]	fold change (FC) (Homo sapiens [6])	Structure (SMILES)
1.15	100	> 50	40.8	55.4	85.5	1.51	23.2	1.3	Clc1cccc(-c2cc(-c3ccco3)c3oc4ccccc4c3n2)c1
0.99	86.1	21.7	> 50	5.1	59.4	0.14	> 50	0.9	Clc1ccccc1-c1cc(-c2ccco2)c2oc3ccccc3c2n1
1.15	100	10.6	> 50	85.8	100	2.33	25.5	1.52	Clc1ccccc1-c1cc(-c2ccsc2)c2oc3ccccc3c2n1
1.15	100	> 50	36.5	80.9	96.2	2.2	13.2	1.46	Clc1ccc(-c2cc(-c3ccco3)c3oc4ccccc4c3n2)cc1
1.08	93.4	16.1	21.7	10.8	64.1	0.29	> 50	0.97	Clc1ccccc1-c1cc(-c2cccs2)c2oc3ccccc3c2n1
0.38	33	19.4	21.7	6.9	58.2	0.19	19.5	0.88	Clc1ccccc1-c1cc(-c2ccccc2)c2oc3ccccc3c2n1
1.15	100	5.47	18.2	35.5	97.3	1.13	7.47	1.86	Clc1cccc(-c2cc(-c3ccc(Cl)o3)c3oc4ccccc4c3n2)c1
0.81	98.9	> 50	16.4	73.7	100	2.34	11.4	1.91	Clc1ccc(-c2cc(-c3ccc(Cl)o3)c3oc4ccccc4c3n2)cc1
0.63	54.6	20.6	13.3	14.6	83.2	0.46	19.4	1.59	Clc1ccccc1-c1cc(-c2ccoc2)c2oc3ccccc3c2n1
1.15	100	> 50	> 50	17.6	78.2	0.48	> 50	1.19	Clc1ccc(-c2cc(-c3ccccc3)c3oc4ccccc4c3n2)cc1
1.15	100	> 50	> 50	29.5	86	0.94	> 50	1.64	Clc1ccc(-c2cc(-c3ccccc3Cl)nc3c2oc2ccccc23)o1
